Common to all, as to format: cell-based, human
In data set [1] the test system is HeLa cells. Put plainly: Transwell migration assay. To be noted: transwell migration; for promotion of cell motility as compared to the negative control: increase by %; for cell mobility on average as compared to the control: increased to % of control. As for the experimental part: (A) Transwell migration assays to assess changes in cell motility. (B) MTS assays to assess changes in cell proliferation.
(§1) FIG. 7 depicts images and graphs showing functional characterization of aiR-9 on cell motility and cell death. […] One representative microscope image from each assay is presented here. (B) Impact of aiR-9 on cell death. TP53 deficiency renders HCT116 cells resistance to cisplatin-induced cell death. HCT116 cells and HCT116 p53^−/− cells were treated with cisplatin (50 μM) and cell death was determined as sub-G1 population by flow cytometry analysis after DNA PI staining. Furthermore, HCT116 cells were transfected with negative control RNA, aiR-9-2 or miR-9 individually followed by cisplatin treatment, and then analyzed by flow cytometry for cell death with PI staining.
Cultured cells were resuspended and washed with PBS buffer. Fifty thousand cells in 100 μL serum-free medium were added to the upper chamber of each Transwell (24-well insert with 8 um pore size from Costar). The lower chamber was filled with 600 μL medium containing 10% bovine serum. Cells were incubated for 6 h and cells on top of the membrane were removed with a cotton-tipped swab. Cells that had migrated through the membrane were fixed and stained with Hema-3 (Fisher Scientific) for counting.

Data set [2] relates to TP53. Description: Real-time RT-PCR of target mRNA. To be noted: HeLa cells. The source says:
FIG. 6 depicts sequences and a graph showing design and validation of aiRNA-9. (A) Sequences of three aiR-9 RNAs. […] The seed regions are underlined.

The subject of data set [3] is HCT116 cells. Put plainly: Flow cytometry of cisplatin-induced cell death (sub-G1, PI staining). To be noted: cisplatin 50 μM. As for the experimental part: as §1
HCT116 and HCT116 p53^−/− cells were cultured in DMEM with 10% FBS. Cisplatin, DNase-free RNase and Propidum Iodide (PI) were purchased from Sigma. After treatment with cisplatin (50 μM), all cells (both floating and attached) were collected, washed once with DPBS, and then fixed with 70% ethanol on ice for at least 30 minutes. Fixed cells were washed twice with DPBS and then stained with PI solution [PI (25 μg/ml) and DNase-free RNase (100 μg/ml) diluted in PBS] at room temperature for 1 hour avoiding light exposure. Data were acquired by BD Aris FACS and analyzed using Flowing Software 2 version 2.5.0 (Finland).

In the case of “miR-9: natural miRNA, SEQ ID NO:9 UCUUUGGUUAUCUAGCUGUAUGA (listed as RNA, chemistry not given here) [reference compound]”, in data set [1], the “promotion of cell motility as compared to the negative control” value amounted to 44% and the “cell mobility on average as compared to the control” value is on record as 144%.
For the substance “aiR-9-2: aiRNA with miR-9 seed and TP53 siRNA homology, SEQ ID NO:11 UCUUUGGUUGGGGAGAGGAGC (listed as RNA, chemistry not given here)”, in data set [1], the “promotion of cell motility as compared to the negative control” value is given as 57% and the “cell mobility on average as compared to the control” value amounted to 157%. For the same substance, the “suppression of TP53 expression” value in data set [2] is given as “effectively suppress”. The “cisplatin-induced cell death (sub-G1 cell population)” value in data set [3] is listed as “drastic suppression of cisplatin-induced cell death”.

(Values after patent US9550989B2, “Rational design of microRNA-siRNA chimeras for multi-functional target suppression” (Washington University, priority 2013, dated 2017).)
